Measurements published in patent publication US10087188B2, “Benzamide imidazopyrazine Btk inhibitors” (MERCK SHARP & DOHME CORP., priority 2014, dated 2018).
Like-named read-outs stand apart in the source and are kept apart here.

What was measured:
[1] = system: HeLa cells; assay: [3H] Adenosine uptake assay; assay type: cell-based; details: accumulation of tritiated adenosine into HeLa cells, compound concentration range 10 μM to 0.032 nM, read-out: ADU inhibition IC50 (adenosine uptake inhibition potency)
How it was run: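 Accumulation of tritiated adenosine in adherent HeLa cells, detected by scintillant-plate coincidence counting, gives IC50 via 4-parameter robust fit. Compound (constant 0.25% DMSO) applied 30 min ahead, then 60 min radiolabel exposure (added from 500 nM solution), ambient conditions, HBSS with 5% FBS.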

[2] = biological target: BTK enzyme (recombinant full-length BTK, hBTK) (Homo sapiens (Human), UniProt Q06187); assay: Btk enzyme activity assay, LANCE TR-FRET; assay type: biochemical; details: 50 pM hBTK, 2 μM biotin-A5-peptide, 25 μM ATP; 60 minute compound & enzyme incubation; read-out: BTK binding IC50
Description: Btk Enzyme Activity Assay Methods
BTK enzymatic activity was determined with the LANCE (Lanthanide Chelate Excite) TR-FRET (Time-resolved fluorescence resonance energy transfer) assay. […] After 60 minutes incubation with detection reagents, reaction plates were read on a PerkinElmer EnVision plate reader using standard TR-FRET protocol.

BTK enzyme (recombinant full-length BTK, hBTK), sequence (Q06187 whole entry): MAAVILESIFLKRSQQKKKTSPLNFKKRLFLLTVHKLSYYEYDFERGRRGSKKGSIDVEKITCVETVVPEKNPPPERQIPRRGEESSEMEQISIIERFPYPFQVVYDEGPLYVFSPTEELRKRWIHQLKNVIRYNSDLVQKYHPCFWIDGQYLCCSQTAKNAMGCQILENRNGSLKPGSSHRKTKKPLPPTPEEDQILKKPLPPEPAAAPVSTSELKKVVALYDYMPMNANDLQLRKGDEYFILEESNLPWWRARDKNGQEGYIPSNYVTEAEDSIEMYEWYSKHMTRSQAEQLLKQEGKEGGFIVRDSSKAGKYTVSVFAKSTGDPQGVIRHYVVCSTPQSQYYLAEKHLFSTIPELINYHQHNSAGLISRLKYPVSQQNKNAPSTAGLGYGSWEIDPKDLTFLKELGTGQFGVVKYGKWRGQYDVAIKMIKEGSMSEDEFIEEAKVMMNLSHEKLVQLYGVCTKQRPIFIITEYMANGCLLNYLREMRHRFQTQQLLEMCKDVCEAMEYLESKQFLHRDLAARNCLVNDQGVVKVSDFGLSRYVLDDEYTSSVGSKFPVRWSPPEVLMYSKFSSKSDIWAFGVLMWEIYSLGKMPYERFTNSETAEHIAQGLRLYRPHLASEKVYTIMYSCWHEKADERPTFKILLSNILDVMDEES

SMILES | IC50 ([1]; Homo sapiens, HeLa) [nM] | IC50 [2] [nM] | IC50 [1] [nM]
Nc1nccn2c(C34CCC(C(=O)O)(CC3)CC4)nc(-c3ccc(C(=O)Nc4cc(C(F)(F)F)ccn4)cc3F)c12 [Example 170, 4-[8-amino-1-(2-fluoro-4-{[4-(trifluoromethyl)pyridin-2-yl]carbamoyl}phenyl)imidazo[1,5-a]pyrazin-3-yl]bicyclo[2.2.2] octane-1-carboxylic acid] | 622 | 0.16 | 
CC(C)C1(C(=O)O)CCC(C)(c2nc(-c3ccc(C(=O)Nc4cc(C(F)(F)F)ccn4)cc3)c3c(N)nccn23)C1 (stereo not drawn) [Example 143, 3-[8-amino-1-(4-{[4-(trifluoromethyl)pyridin-2-yl]carbamoyl}phenyl)imidazo[1,5-a]pyrazin-3-yl]-3-methyl-1-(1-methylethyl)cyclopentane-carboxylic acid] |  | 0.72 | 4010
C[C@@]1(C(=O)O)CCN(c2nc(-c3ccc(C(=O)Nc4cc(C(F)(F)F)ccn4)cc3)c3c(N)nccn23)C1 [Example 44, (3R)-1-[8-amino-1-(4-{[4-(trifluoromethyl)pyridin-2-yl]carbamoyl}phenyl)imidazo[1,5-a]pyrazin-3-yl]-3-methylpyrrolidine-3-carboxylic acid] | 8740 | 1.8 | 
CCOc1cc(C(=O)Nc2cc(C(F)(F)F)ccn2)cc(F)c1-c1nc([C@]2(C)CC[C@@](C)(C(=O)O)CC2)n2ccnc(N)c12 [Example 119, trans-4-[8-amino-1-(2-ethoxy-6-fluoro-4-{[4-(trifluoromethyl)pyridin-2-yl]carbamoyl}phenyl)imidazo[1,5-a]pyrazin-3-yl]-1,4-dimethylcyclohexane-carboxylic acid] | 10000 | 0.96 | 
C[C@H]1CO[C@@H](c2nc(-c3ccc(C(=O)Nc4cc(C5CC5)ccn4)cc3F)c3c(N)ncc(Cl)n23)CN1[C@H]1CC[C@](C)(C(=O)O)CC1 [Example 209, trans-4-[(2R,5S)-2-(8-amino-5-chloro-1-{4-[(4-cyclopropylpyridin-2-yl)carbamoyl]-2-fluorophenyl}imidazo[1,5-a]pyrazin-3-yl)-5-methylmorpholin-4-yl]-1-methylcyclohexanecarboxylic acid] | 3160 | 0.76 | 
Nc1nccn2c([C@@H]3CC[C@H](C(=O)NC4(C(=O)O)CC4)C3)nc(-c3ccc(C(=O)Nc4cc(C(F)(F)F)ccn4)cc3)c12 [Example 16, 1-[({(1S,3R)-3-[8-amino-1-(4-{[4-(trifluoromethyl)pyridin-2-yl]carbamoyl}phenyl)imidazo[1,5-a]pyrazin-3-yl]cyclopentyl}carbonyl)amino] cyclopropane-carboxylic acid] | 4780 | 2.1 | 
CCOc1cc(C(=O)Nc2cc(C(F)(F)F)ccn2)ccc1-c1nc([C@@H]2C[C@@H]3[C@H](C2)[C@H]3C(=O)O)n2ccnc(N)c12 [Example 135, (1R,3R,5S,6r)-3-[8-amino-1-(2-ethoxy-4-{[4-(trifluoromethyl)pyridin-2-yl]carbamoyl}phenyl)imidazo[1,5-a]pyrazin-3-yl]bicyclo[3.1.0] hexane-6-carboxylic acid] | 6780 | 0.43 | 
C[C@H]1CO[C@@H](c2nc(-c3ccc(C(=O)Nc4cc(C(F)F)ccn4)cc3F)c3c(N)ncc(Cl)n23)CN1[C@H]1CC[C@](C)(C(=O)O)CC1 [Example 207, trans-4-{(2R,5S)-2-[8-amino-5-chloro-1-(4-{[4-(difluoromethyl)pyridin-2-yl]carbamoyl}-2-fluorophenyl)imidazo[1,5-a]pyrazin-3-yl]-5-methylmorpholin-4-yl}-1-methylcyclohexanecarboxylic acid] | 10000 | 737 | 
Nc1nccn2c([C@H]3CC[C@@H](C(=O)N4CC[C@@H](C(=O)O)C4)C3)nc(-c3ccc(C(=O)Nc4cc(C(F)(F)F)ccn4)cc3)c12 [Example 19, (3R)-1-({(1R,3S)-3-[8-amino-1-(4-{[4-(trifluoromethyl)pyridin-2-yl]carbamoyl}phenyl)imidazo[1,5-a]pyrazin-3-yl]cyclopentyl}carbonyl)pyrrolidine-3-carboxylic acid] | 2870 | 0.62 | 
CCOc1cc(C(=O)Nc2cc(C(F)(F)F)ccn2)ccc1-c1nc([C@]2(C)CC[C@@](C)(C(=O)O)C2)n2ccnc(N)c12 [Example 85, (1R,3R)-3-[8-amino-1-(2-ethoxy-4-{[4-(trifluoromethyl)pyridin-2-yl]carbamoyl}phenyl)imidazo[1,5-a]pyrazin-3-yl]-1,3-dimethylcyclopentane carboxylic acid] | 10000 | 1.4 | 
CCOc1cc(C(=O)Nc2cc(C(F)(F)F)ccn2)ccc1-c1nc(C23CCC(C(=O)O)(CC2O)C(O)C3)n2ccnc(N)c12 (stereo not drawn) [Example 174, 4-(8-amino-1-(2-ethoxy-4-((4-(trifluoromethyl)pyridin-2-yl)carbamoyl)phenyl)imidazo[1,5-a]pyrazin-3-yl)-2,5-dihydroxybicyclo[2.2.2]octane-1-carboxylic acid] | 10000 | 3.9 | 
CCOc1cc(C(=O)Nc2cc(C(F)(F)F)ccn2)ccc1-c1nc(C2(C)CCC(C)(C(=O)O)C2)n2ccnc(N)c12 (stereo not drawn) [Example 22, 3-(8-amino-1-(2-ethoxy-4-((4-(trifluoromethyl)pyridin-2-yl)carbamoyl)phenyl)imidazo[1,5-a]pyrazin-3-yl)-1,3-dimethylcyclopentanecarboxylic acid] | 6290 | 0.66 | 

Results, then the molecule that gave them:

IC50 ([1]; Homo sapiens, HeLa) [nM] | IC50 [2] [nM] | IC50 [1] [nM] | SMILES
10000 | 12.2 |  | CCOc1cc(C(=O)Nc2cc(C(F)(F)F)ccn2)ccc1-c1nc([C@H]2CC[C@](C(=O)O)(C(C)C)C2)n2ccnc(N)c12 [Example 62, (1R,3S)-3-[8-amino-1-(2-ethoxy-4-{[4-(trifluoromethyl)pyridin-2-yl]carbamoyl}phenyl)imidazo[1,5-a]pyrazin-3-yl]-1-(1-methylethyl) cyclopentane-carboxylic acid]
10000 | 1.8 |  | CCOc1cc(C(=O)Nc2cc(C(F)(F)F)ccn2)ccc1-c1nc([C@H]2CCC[C@](C(=O)O)(C(C)C)C2)n2ccnc(N)c12 [Example 90, (1R,3S)-3-[8-amino-1-(2-ethoxy-4-{[4-(trifluoromethyl)pyridin-2-yl]carbamoyl}phenyl)imidazo[1,5-a]pyrazin-3-yl]-1-(1-methylethyl) cyclohexane-carboxylic acid]
5910 | 2.2 |  | Nc1nccn2c([C@@H]3CCN[C@H](C(=O)O)C3)nc(-c3ccc(C(=O)Nc4cc(C(F)(F)F)ccn4)cc3)c12 [Example 32, (2S,4R)-4-[8-amino-1-(4-{[4-(trifluoromethyl)pyridin-2-yl]carbamoyl}phenyl)imidazo[1,5-a]pyrazin-3-yl]piperidine-2-carboxylic acid]
891 | 1.9 |  | CC(C)[C@@]1(C(=O)O)CC[C@H](N2C[C@H](c3nc(-c4ccc(C(=O)Nc5cc(C(F)(F)F)ccn5)cc4F)c4c(N)ncc(Cl)n34)OC[C@@H]2C)C1 [Example 203, (1R,3S)-3-{(2R,5S)-2-[8-amino-5-chloro-1-(2-fluoro-4-{[4-(trifluoromethyl)pyridin-2-yl]carbamoyl}phenyl)imidazo [1,5-a]pyrazin-3-yl]-5-methylmorpholin-4-yl}-1-(1-methylethyl) cyclopentanecarboxylic acid]
2020 | 5.9 |  | Cc1cnc(N)c2c(-c3ccc(C(=O)Nc4ccccn4)cc3)nc([C@H]3CN([C@H]4CC[C@](C)(C(=O)O)CC4)CCO3)n12 [Example 199, trans-4-[(2R)-2-{8-amino-5-methyl-1-[4-(pyridin-2-ylcarbamoyl)phenyl]imidazo [1,5-a]pyrazin-3-yl}morpholin-4-yl]-1-methylcyclohexanecarboxylic acid]
7320 | 0.37 |  | CCOc1cc(C(=O)Nc2cc(C3CC3)ccn2)cc(F)c1-c1nc([C@@H]2CC[C@](C)(C(=O)O)C2(C)C)n2ccnc(N)c12 [Example 121, (1S,3R)-3-(8-amino-1-{4-[(4-cyclopropylpyridin-2-yl)carbamoyl]-2-ethoxy-6-fluorophenyl}imidazo [1,5-a]pyrazin-3-yl)-1,2,2-trimethylcyclopentane carboxylic acid]
9790 | 13.9 |  | CCOc1cc(C(=O)Nc2cc(C(F)(F)F)ccn2)ccc1-c1nc([C@]2(C)CC[C@](C)(C(=O)O)C2)n2ccnc(N)c12 [Example 87, (1S,3R)-3-[8-amino-1-(2-ethoxy-4-{[4-(trifluoromethyl)pyridin-2-yl]carbamoyl}phenyl)imidazo[1,5-a]pyrazin-3-yl]-1,3-dimethylcyclopentane carboxylic acid]
 | 8.7 | 3050 | CCOc1cc(C(=O)Nc2cc(C(F)(F)F)ccn2)ccc1-c1nc([C@@H]2CC[C@@H](C(=O)O)O2)n2ccnc(N)c12 [Example 117, (2S,5S)-5-[8-amino-1-(2-ethoxy-4-{[4-(trifluoromethyl)pyridin-2-yl]carbamoyl}phenyl)imidazo[1,5-a]pyrazin-3-yl]tetrahydrofuran-2-carboxylic acid]
5540 | 2.3 |  | CC1(C(=O)O)CCC(c2nc(-c3ccc(C(=O)Nc4cc(C(F)(F)F)ccn4)cc3)c3c(N)ncc(Cl)n23)CC1 (stereo not drawn) [Example 162, 4-[8-amino-5-chloro-1-(4-{[4-(trifluoromethyl)pyridin-2-yl]carbamoyl}phenyl)imidazo[1,5-a]pyrazin-3-yl]-1-methylcyclohexane-carboxylic acid]
